# “And” between values parts separate entries of the source, which are not always exact repeats. Identical values can stand only once.
# Tested on: adults with Pompe disease
# Assay: Study ATB200-02 (20 mg/kg cipaglucosidase alfa IV + 260 mg miglustat): 6MWT (6MWD, % predicted 6MWD);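 note: Open-label Phase I/II trial, ambulatory cohorts only, values are changes from baseline or counts relative to the baseline walk test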
# Format: in vivo, human
# [1] = Ambulatory ERT-experienced, 12 months
# [2] = Ambulatory ERT-experienced, 24 months
# [3] = Ambulatory ERT-experienced, 36 months
# [4] = Ambulatory ERT-experienced, 48 months
# [5] = Ambulatory ERT-naïve, 12 months
# [6] = Ambulatory ERT-naïve, 24 months
# [7] = Ambulatory ERT-naïve, 36 months
# [8] = Ambulatory ERT-naïve, 48 months
# [9] = Cohort 1 + Cohort 3 + Cohort 4, Month 12
# [10] = Cohort 1 + Cohort 3 + Cohort 4, Month 24
# [11] = Cohort 1 + Cohort 3 + Cohort 4, Month 36
# [12] = Cohort 1 + Cohort 3 + Cohort 4, Month 48
# Experimental: The change from baseline (CFBL) in 6MWD, % predicted sitting FVC, manual muscle test (MMT) and biomarkers—urine glucose tetrasaccharide (Hex4) and serum creatine kinase (CK)—were assessed at regular intervals.
# The 4 cohorts in the study are as follows: • Cohort 1: ERT-experienced (2 to 6 years) ambulatory subjects (11 subjects) • Cohort 2: ERT-experienced (≥2 years) non-ambulatory subjects (6 subjects) • Cohort 3: ERT-naïve ambulatory subjects (6 subjects)· • Cohort 4: ERT-experienced (≥7 years) ambulatory subjects (6 subjects)
# In Study ATB200-02, motor function was evaluated in all ambulatory subjects (ie, Cohorts 1, 3, and 4) (Table 23, FIGS. 46A-46D).
substance,measurement,setting,value
"ATB200/miglustat: two-component therapy: cipaglucosidase alfa (ATB200) administered in conjunction with miglustat (AT2221), a stabilizer of cipaglucosidase alfa",motor function by 6MWT,"48 months, Cohorts 1, 3, 4",clinically meaningful improvements in motor function as measured by the 6MWT
same,"6MWD, CFBL mean",[1],33.5 meters
same,"Percent predicted 6MWD, CFBL mean",[1],6.1
same,"6MWD, CFBL mean",[2],25.2 meters
same,"Percent predicted 6MWD, CFBL mean",[2],5.4
same,"6MWD, CFBL mean",[3],9.8 meters
same,"Percent predicted 6MWD, CFBL mean",[3],3.4
same,"6MWD, CFBL mean",[4],20.7 meters
same,"Percent predicted 6MWD, CFBL mean",[4],5.9
same,"6MWD, CFBL mean",[5],57.0 meters
same,"Percent predicted 6MWD, CFBL mean",[5],10.7
same,"6MWD, CFBL mean",[6],54.4 meters
same,"Percent predicted 6MWD, CFBL mean",[6],11.0
same,"6MWD, CFBL mean",[7],43.5 meters
same,"Percent predicted 6MWD, CFBL mean",[7],9.0
same,"6MWD, CFBL mean",[8],52.2 meters
same,"Percent predicted 6MWD, CFBL mean",[8],11.7
same,"6MWD change from baseline, mean",[9],39.9 meters
same,"6MWD change from baseline, median",[9],27.4 meters
same,"6MWD change from baseline, mean",[10],34.4 meters
same,"6MWD change from baseline, median",[10],22.6 meters
same,"6MWD change from baseline, mean",[11],19.7 meters
same,"6MWD change from baseline, median",[11],24.2 meters
same,"6MWD change from baseline, mean",[12],30.4 meters
same,"6MWD change from baseline, median",[12],27.0 meters
same,"6MWD change from baseline, mean","Cohort 1 + Cohort 4 (ERT-experienced), Month 12, listed as cipaglucosidase alfa/miglustat",33 meters and 33.5 meters
same,"6MWD change from baseline, mean","Cohort 1 + Cohort 4 (ERT-experienced), Month 24, listed as cipaglucosidase alfa/miglustat",25 meters and 25.2 meters
same,"6MWD change from baseline, mean","Cohort 1 + Cohort 4 (ERT-experienced), Month 36, listed as cipaglucosidase alfa/miglustat",9.8 meters
same,"6MWD change from baseline, mean","Cohort 1 + Cohort 4 (ERT-experienced), Month 48, listed as cipaglucosidase alfa/miglustat",20 meters and 20.7 meters
same,"6MWD change from baseline, median","Cohort 1 + Cohort 4, Month 12",20.6 meters
same,"6MWD change from baseline, median","Cohort 1 + Cohort 4, Month 24",18.5 meters
same,"6MWD change from baseline, median","Cohort 1 + Cohort 4, Month 36",11.6 meters
same,"6MWD change from baseline, median","Cohort 1 + Cohort 4, Month 48",27.0 meters
same,"6MWD change from baseline, mean","Cohort 3 (ERT-naïve), Month 12, listed as cipaglucosidase alfa/miglustat",57 meters and 57.0 meters
same,"6MWD change from baseline, mean","Cohort 3 (ERT-naïve), Month 24, listed as cipaglucosidase alfa/miglustat",54 meters and 54.4 meters
same,"6MWD change from baseline, mean","Cohort 3 (ERT-naïve), Month 36, listed as cipaglucosidase alfa/miglustat",43 meters and 43.5 meters
same,"6MWD change from baseline, mean","Cohort 3 (ERT-naïve), Month 48, listed as cipaglucosidase alfa/miglustat",52 meters and 52.2 meters
same,"6MWD change from baseline, median","Cohort 3, Month 12",55.6 meters
same,"6MWD change from baseline, median","Cohort 3, Month 24",49.0 meters
same,"6MWD change from baseline, median","Cohort 3, Month 36",59.0 meters
same,"6MWD change from baseline, median","Cohort 3, Month 48",40.5 meters
same,patients whose 6MWD improved numerically from baseline (n/N),"ERT-experienced, 12 months",13/16
same,patients whose 6MWD improved numerically from baseline (n/N),"ERT-experienced, 24 months",9/13
same,patients whose 6MWD improved numerically from baseline (n/N),"ERT-experienced, 36 months",6/12
same,patients whose 6MWD improved numerically from baseline (n/N),"ERT-experienced, 48 months",6/9
same,patients with improvement from baseline in mean % predicted 6MWD,"ERT-experienced, Month 48",88.9%
same,patients whose 6MWD improved numerically from baseline (n/N),"ERT-naïve, 12 months",6/6
same,patients whose 6MWD improved numerically from baseline (n/N),"ERT-naïve, 24 months",6/6
same,patients whose 6MWD improved numerically from baseline (n/N),"ERT-naïve, 36 months",4/5
same,patients whose 6MWD improved numerically from baseline (n/N),"ERT-naïve, 48 months",4/4
same,patients with improvement from baseline in mean % predicted 6MWD,"ERT-naïve, Month 48",100%
